# Results: PMC11610669, “A Spectroscopic Study on the Amyloid‐β Interaction with Clicked Peptide‐Porphyrin Conjugates: a Vision Toward the Detection of Aβ Peptides in Aqueous Solution” (Chembiochem, 2024)
# “Also recorded” adds a separate entry of the source.
# Legend:
# [1] = UV-Vis self-aggregation of the conjugates; type: physicochemical; conditions: UV-Vis 300–650 nm, 5 μM, 10 mM phosphate buffer pH 7.4, room temperature, 0–120 h
# Description: We first studied the effects of peptide conjugation on the porphyrin chromophore, by UV‐Vis spectra in the region between 300–650 nm. The spectra were recorded using a solution of 5 μM Porphyrin‐peptide conjugate in 10 mM phosphate buffer pH 7.4. The UV‐Vis profile of the porphyrin precursor MCPTPyP, recorded at the same concentration, is also shown for the sake of comparison (Figure 1).
# (§1) Peptide conjugation influences the spectral features of the porphyrin chromophore as evidenced by the red shift in the absorption maximum in the region of the Soret band region. The Q bands are also affected, particularly in the Cu‐Ph‐Pep and Zn‐Ph‐Pep compounds (Figure 1). In this case the presence of a metal ion within the porphyrin's core might contribute to the observed spectral profile of these compounds. […] The fluorescence spectra of the investigated systems were also acquired in view of the interaction of the studied conjugates with cells (see below biological section).[41] The fluorescence spectra were recorded with the photoexcitation at 425±5 nm, in 10 mM phosphate buffer pH 7.4 and 5 μM concentration. The emission spectrum of the porphyrin precursor MCPTPyP ( Ph ) was also obtained for the sake of comparison.
# (§2) Spectra were recorded on a Jasco V‐670 Spectrophotometer at room temperature. All measurements were performed in the 300–650 nm wavelength region, in a 10 mM phosphate buffer solution at pH 7.4 using a 1 cm path length quartz cell. The spectra of all the peptide‐porphyrin conjugates, either in the absence or in the presence of equimolar Aβ42, were acquired at 5 μM. In some cases, the same sample solution was used to run the CD spectra. The final concentrations of Aβ42 and peptide conjugates were 5 μM (1 : 1 molar ratio).
# [2] = target: T1, Aβ42 (Homo sapiens, UniProt P05067); assay: UV-Vis of conjugates with equimolar Aβ42; type: biochemical; conditions: 5 μM conjugate, equimolar Aβ42, 10 mM phosphate buffer pH 7.4, 0, 24, 48 and 120 h
# T1 sequence (P05067 672-713 limits assumed): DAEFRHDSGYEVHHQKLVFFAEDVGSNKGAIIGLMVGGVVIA
# Description: The UV‐Vis spectra of porphyrin‐peptide conjugates (5 μM) were recorded in the presence of an equimolar ration of Aβ42 monomers at 0, 24, 48 and 120 h (Figure 2S). […] Therefore, the interaction of the peptide‐porphyrin conjugates with Aβ was further studied using CD spectroscopy. The Aβ42 aggregation process was monitored either in the absence or in the presence of an equimolar amount of the conjugated peptides. A series of CD control experiments were preventively carried out to assess the propensity of the porphyrin‐peptide conjugates to adopt a β‐sheet conformation. The corresponding CD curves are shown in the supplementary material (Figure 3S). […] We then evaluated the ability of the porphyrin‐peptide conjugates to affect the Aβ42’s aggregation process. This was accomplished by running a series of CD experiments on the binary systems in the same experimental conditions as the control CD measurements. A 5 μM Aβ42 sample was used as a positive control of the aggregation process (Figure 3, panel a). In this case, the curve profiles indicate that at 0 h, Aβ42 is predominantly in the random coil conformation, as evidenced by the negative ellipticity around 200 nm. […] The typical dichroic profile characterized by a negative ellipticity at λ=222 nm and a positive band at λ=200 is indicative of this event (Figure 3, panel a).
# as §2
# [3] = target: T1, Aβ42; assay: Sensing: induced CD in porphyrin Soret region with Aβ42; type: binding; conditions: Aβ42 20 μM, 1:1, 350–500 nm, 10 mM phosphate buffer pH 7.4
# Description: The Grating‐Coupled Interferometry (GCI) is a widely used analytical technique for characterizing intermolecular interactions. It allows quantitative measurements of both the affinity and the kinetics of the binding events. This high sensitivity label‐free method was exploited to measure the interactions of Aβ42 with Cu‐Ph‐Pep , Ph‐Pep , and Zn‐Ph‐Pep (Figure 5S). Control experiments with pristine MCPTPyP and the peptide GPGKLVFF ( Pep ) were carried out for comparison. The calculated association and dissociation kinetic constants (kon and koff, respectively) and the thermodynamic binding constant (KD), are summarized in Table 1. The obtained values indicate that all the conjugates show good affinities with Aβ42. It is also clear from Table 1 that the peptide moiety is fundamental for the molecular recognition of the Aβ42 peptide.[48] […] For the sake of comparison, the CD spectra of the porphyrin‐peptide conjugates at 20 μM were also recorded in the same experimental conditions, both in the far‐UV and Visible regions (Figure 6S).
# Spectra were recorded on a J‐810 spectrometer (Jasco, Japan) under a constant flow of N2 at room temperature. […] All aggregation kinetics were monitored up to 120 hours. The CD spectra were recorded for Aβ42 (5 μM and 20 μM) monomer in the absence or in the presence of porphyrin‐peptide conjugates (5 μM and 20 μM for the 1 : 1 molar ratios). […]
# [4] = test system: Aβ8–20; assay: CD of conjugate with Aβ8–20 fragment; type: binding
# Description: To better visualize how the induced signal increases as Aβ42 adopts the β‐sheet conformation, a comparative graph displaying the absolute value of the CD intensities at the maximum absorption wavelength for each derivative, either in the presence or absence of Aβ42 over the same time interval, is reported in the SI (Figure 7S). […] (Figure 8S panel a). […] We assume that the conjugate Zn‐Ph‐Pep conjugate could similarly interact with the Aβ8–20 fragment.
# Spectra were recorded on a J‐810 spectrometer (Jasco, Japan) under a constant flow of N2 at room temperature. The CD measurements were performed in the wavelength regions (190–260 nm, 195–350 nm and 350–500 nm) using a 1 cm path length quartz cell. All aggregation kinetics were monitored up to 120 hours. The CD spectra were recorded for Aβ42 (5 μM and 20 μM) monomer in the absence or in the presence of porphyrin‐peptide conjugates (5 μM and 20 μM for the 1 : 1 molar ratios). Monomerized samples of Aβ42 (5 μM and 20 μM) were solubilized in 50 μL of NaOH 20 mM (2,5 %) and after were diluted with 1950 μL of 10 mM phosphate buffer at pH 7.4 pure or containing the solubilized conjugates.
# [5] = Porphyrin fluorescence in buffer; type: physicochemical; conditions: 5 μM, 10 mM phosphate buffer pH 7.4, excitation 425 nm; vs pristine MCPTPyP
# Source text: as §1
# Spectra were recorded on a Horiba Fluoro‐max‐4 spectrofluorometer from 440–800 nm in 1 nm steps, at an excitation wavelength λexc=425 nm, at room temperature. The final fluorescence spectra represent averages of at least three measurements. Bandwidths of 5 nm for both excitation and emission were used. The sample of the compound used to record absorption spectra were the same as those for the CD spectra.
structure (smiles),measurement,setting,value
COC(=O)[C@H](Cc1cn(CCCC[C@H](NC(=O)CNC(C)=O)C(=O)N2CCC[C@H]2C(=O)NCC(=O)N[C@@H](CCCCN)C(=O)N[C@@H](CC(C)C)C(=O)N[C@H](C(=O)N[C@@H](Cc2ccccc2)C(=O)N[C@@H](Cc2ccccc2)C(N)=O)C(C)C)nn1)NC(=O)c1ccc(-c2c3nc(c(-c4cc[n+](C)cc4)c4ccc([nH]4)c(-c4cc[n+](C)cc4)c4nc(c(-c5cc[n+](C)cc5)c5ccc2[nH]5)C=C4)C=C3)cc1 [Zn‐Ph‐Pep],self-aggregation,[1],slight propensity to self‐aggregation
same,UV-Vis spectral change in presence of Aβ42,[2],may suggest a rapid formation of aggregated species
same,induced CD signal in Soret region with Aβ42,[3],induced dichroic signal; also recorded: generates a distinct CD signal
same,conformation of Aβ8–20/conjugate mixture,[4]; Far-UV CD,significant amount of random coil conformation
same,induced CD signal in visible region with Aβ8–20,[4]; same experimental conditions as with Aβ42,no induced CD signal is clearly detectable
same,fluorescence emission intensity,[5],somewhat decreased
